{"source": "patent US8841311B2", "about": "“Sulphone-substituted quinazoline derivatives as immuno-modulators, their preparation and use as medicaments” (Bayer Intellectual Property GmbH, priority 2008, dated 2014)", "tested_on": "TLR-induced TNF-α release in human peripheral blood mononuclear cells (PBMC)", "experiment": "TLR-induced cytokine release in human PBMC (TNF-alpha, ELISA)", "format": "cell-based", "conditions": "human PBMC stimulated with TLR ligand, 18 hours incubation", "protocol": "TLR-Induced Cytokine Release in Human “Peripheral Blood Mononuclear Cells” (PBMC)\nPBMCs isolated from human whole blood are stimulated using a TLR ligand.\nThe cytokine determination is carried out by means of ELISA kits; a proliferation/cell metabolism determination is carried out using Alamar Blue.\nFor the cell preparation, about 200 ml of blood are treated with an anticoagulant (e.g. citrate Monovettes). Per Leucosep tube, 15 ml of Histopaque (room temperature, RT) are poured in and pressed downwards through the frit employed by brief initial centrifugation (one minute at 1000×g, RT). 20 ml of blood are added to the tubes prepared in this way and centrifuged at 800×g for 15 minutes (RT). After centrifugation, the following layered arrangement results from the top to the bottom: plasma—PBMC Histopaque—filter disc—Histopaque—erythrocytes and granulocytes. The supernatant plasma is aspirated. The PBMC are transferred together with the underlying Histopaque to a new 50 ml tube, the contents of two Leucosep tubes always being added to one 50 ml tube. The 50 ml tubes are then filled to 50 ml with PBS. This cell suspension is centrifuged at 300×g (RT) for 10 minutes. The liquid supernatant is tipped off and the cell pellet is resuspended with a little PBS and subsequently filled to 50 ml with PBS. […] The metabolic activity of the treated cells is determined with the aid of Alamar Blue.", "data": [{"compound": "COc1cc2c(NC(C)C)ncnc2cc1OCc1cccc(S(C)(=O)=O)c1", "note": "[Example 2.1, Isopropyl[7-(3-methanesulphonylbenzyloxy)-6-methoxyquinazolin-4-yl]amine]", "values": [{"measurement": "IC50", "result": 3000, "unit": "nM"}]}]}
